The nature of series [1]: refractive index (Na D-line) (dimensionless); xn = mol fraction of the nth substance listed. Conditions: 101 kPa, Liquid, Standard Abbe refractometry.
The nature of series [2]: xn = mol fraction of the nth substance listed. Conditions: 101 kPa, Liquid; for speed of sound: Sing-around technique in a fixed-path interferometer; for mass density: Vibrating tube method.

Here are results for 2 molecules from the NIST ThermoML archive (doi:10.1021/je800077r).

± gives the expanded uncertainty stated by the source.

As a reminder, the refractive index is the speed of light in vacuum divided by its phase velocity in the sample. The speed of sound is the propagation velocity of pressure waves in the medium. Usually mass density stands for mass per unit of volume. With `CCOC(C)=O` [ethyl acetate] + CCCCCCn1cc[n+](C)c1.F[P-](F)(F)(F)(F)F, the refractive index in series [1] (293.15 K, x2 = 0) worked out at 1.37241 ± 0.00061; in series [1] (298.15 K, x2 = 0), 1.36977 ± 0.00061; in series [1] (303.15 K, x2 = 0), 1.36712 ± 0.00062. For the same molecule, the speed of sound is 1162 ± 1 m/s in series [2] (293.15 K, x2 = 0); 1141 ± 1 m/s in series [2] (298.15 K, x2 = 0); 1111 ± 1 m/s in series [2] (303.15 K, x2 = 0). Further, the mass density worked out at 900.5 ± 0.1 kg/m3 in series [2] (293.15 K, x2 = 0); 894.4 ± 0.1 kg/m3 in series [2] (298.15 K, x2 = 0); 888.2 ± 0.1 kg/m3 in series [2] (303.15 K, x2 = 0).

As to `CCCCCC` [hexane] + CCOC(C)=O, the refractive index in series [1] (293.15 K, x1 = 1) is reported as 1.37495 ± 0.00067; in series [1] (298.15 K, x1 = 1) it was 1.37217 ± 0.00067; in series [1] (303.15 K, x1 = 1) it was 1.36936 ± 0.00067. Further, the speed of sound in series [2] (293.15 K, x1 = 1) came out at 1100 ± 2 m/s; in series [2] (298.15 K, x1 = 1), 1078 ± 2 m/s; in series [2] (303.15 K, x1 = 1), 1055 ± 2 m/s. The mass density in series [2] (293.15 K, x1 = 1) amounted to 659.5 ± 0.3 kg/m3; in series [2] (298.15 K, x1 = 1), 654.9 ± 0.3 kg/m3; in series [2] (303.15 K, x1 = 1) it was 650.4 ± 0.3 kg/m3.
